Source: ChEMBL document CHEMBL3108715, “Pan-histone demethylase inhibitors simultaneously targeting Jumonji C and lysine-specific demethylases display high anticancer activities” (J Med Chem, 2014)
Activity calls are given as the source filed them. The rule behind the calls is not given here.

Assays:
Egl nine homolog 1 = Egl nine homolog 1 (Homo sapiens, UniProt Q9GZT9); assay: Inhibition of PHD2 (unknown origin) by mass spectrometry
HCT-116 [1] = assay: Cytotoxicity against human HCT116 cells at 50 uM after 6 hrs; assay type: functional, cell-based
[2] = target: Hypoxia-inducible factor 1-alpha inhibitor (Homo sapiens, UniProt Q9NWT6); assay: Inhibition of FIH (unknown origin) by mass spectrometry
Chain of Hypoxia-inducible factor 1-alpha inhibitor (Q9NWT6 whole entry): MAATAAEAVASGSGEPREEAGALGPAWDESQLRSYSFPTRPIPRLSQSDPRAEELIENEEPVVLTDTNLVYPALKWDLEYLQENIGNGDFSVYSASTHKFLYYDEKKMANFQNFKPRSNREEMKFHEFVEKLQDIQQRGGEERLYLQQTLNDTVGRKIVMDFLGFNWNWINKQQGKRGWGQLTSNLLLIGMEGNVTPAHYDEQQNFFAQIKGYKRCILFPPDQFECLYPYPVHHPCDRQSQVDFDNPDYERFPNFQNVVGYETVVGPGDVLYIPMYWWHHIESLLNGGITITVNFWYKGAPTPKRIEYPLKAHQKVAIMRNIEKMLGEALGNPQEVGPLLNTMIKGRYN

[3] = Induction of apoptosis in human MePR cells assessed as accumulation at pre-G1 phase at 50 uM after 24 hrs by propidium iodide staining-based FACS analysis (reference value: 8.4%); assay type: cell-based
HCT-116 [4] = assay: Cell cycle arrest in human HCT116 cells assessed as accumulation at pre-G1 phase at 50 uM after 30 hrs by propidium iodide staining-based FACS analysis; assay type: functional
HCT-116 [5] = assay: Induction of apoptosis in human HCT116 cells at 10 to 100 uM after 48 hrs by propidium iodide staining-based FACS analysis; assay type: functional, cell-based
LNCaP = assay: Inhibition of LSD1/JmjC in human LNCAP cells assessed as increase in H3K4me2/3 level at 50 uM by Western blotting analysis; assay type: cell-based

Chain of Egl nine homolog 1 (Q9GZT9 whole entry): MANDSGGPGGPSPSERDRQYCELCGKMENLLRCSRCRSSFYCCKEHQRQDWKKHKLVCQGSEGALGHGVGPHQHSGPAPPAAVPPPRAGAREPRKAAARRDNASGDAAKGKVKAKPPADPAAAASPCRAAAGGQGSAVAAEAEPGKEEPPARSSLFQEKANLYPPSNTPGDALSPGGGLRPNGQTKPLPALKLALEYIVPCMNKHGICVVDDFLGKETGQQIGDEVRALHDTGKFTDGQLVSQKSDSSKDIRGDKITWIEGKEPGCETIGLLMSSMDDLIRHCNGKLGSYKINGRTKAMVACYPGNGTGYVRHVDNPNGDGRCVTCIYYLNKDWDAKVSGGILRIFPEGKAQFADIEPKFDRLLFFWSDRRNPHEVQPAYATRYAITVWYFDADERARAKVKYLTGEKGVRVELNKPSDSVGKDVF

IC50 (Egl nine homolog 1) [µM] | IC50 [2] [µM] | SMILES | Activity (HCT-116 [1]) | Activity [3] [%] | Activity (HCT-116 [4]) | Activity (HCT-116 [5]) | inhibition (LNCaP)
8.5 | 25 | Cl.N[C@@H]1C[C@H]1c1ccc(NC(=O)c2ccc(O)c3ncccc23)cc1 (relative stereo) | Active | 4.2 | Active | Active | Active
 |  | COC(=O)c1ccnc(-c2cc(C(=O)Nc3ccc([C@@H]4C[C@H]4N)cc3)ccn2)c1.Cl (relative stereo) | Active | 12.8 | Active | Active | Active
278 | > 100 | N[C@@H]1C[C@H]1c1ccc(NC(=O)c2ccnc(-c3cc(C(=O)O)ccn3)c2)cc1 (relative stereo) |  |  |  |  | 
